Patent US20050119238A1, “Compositions and methods for preventing sporadic neoplasia in colon” (priority 2002, published 2005)

Key:
[1] = Serious medical events in the randomized placebo-controlled aspirin study; conditions: for Serious Bleeding, Gastrointestinal / Serious Bleeding, Genitourinary: bleeding leading to hospitalization or surgical intervention
Procedure: A multi-center, randomized, double-blind, placebo-controlled study was performed that examined the effects of aspirin alone as well as folate treatment combined with aspirin on the occurrence of large bowel adenomas. The study has a 3-by-2 factorial design, investigating aspirin (placebo, 81 mg/day, or 325 mg/day) and folic acid (placebo or 1 mg/day). Patients were recruited at nine centers in North America. Eligible subjects had at least one of the following: (1) one or more histologically confirmed large-bowel adenomas removed within 3 months prior to recruitment, (2) one or more histologically confirmed large-bowel adenomas removed within 16 months before recruitment and a lifetime history of 2 or more confirmed large-bowel adenomas, or (3) a histologically confirmed large-bowel adenoma at least 1 cm in diameter removed within 16 months before recruitment. […] Eligible subjects were between 21 and 80 years old, in good health, and with anticipated colonoscopic follow-up three years after the qualifying examination. Exclusion criteria included a history of a familial colorectal cancer syndrome, invasive large-bowel cancer, malabsorption syndromes, any condition potentially worsened by supplemental aspirin or folic acid, or any condition commonly treated with aspirin, non-steroidal anti-inflammatory drugs (NSAIDs), or folate (e.g., recurrent arthritis, atherosclerotic vascular disease, folic acid deficiency).
Study coordinators at each center maintained contact with the subjects on a regular basis; interval questionnaires regarding possible side effects and medical events were completed every four months by each subject.
Subjects were regularly counseled regarding avoidance of aspirin and other NSAIDs. Lists of products containing aspirin, ibuprofen, or naproxen were provided, and acetaminophen was distributed for treatment of minor febrile illnesses and pain. Every four months, subjects received questionnaires regarding adherence to study treatment; use of medications, over-the-counter drugs and nutritional supplements; and occurrence of symptoms, illnesses, and hospitalizations.
The statistical analysis compared the aspirin treatment groups irrespective of folic acid treatment. Subjects who underwent a follow-up endoscopy at least one year following randomization were included in the analyses. The predefined primary statistical analysis was a 2 degree-of-freedom chi-squared test for a contingency table comparing treatment groups regarding risk of one or more new adenomas. Crude risk ratios and 95 percent confidence intervals were used to compare treatment groups to placebo. Adjusted risk ratios were obtained from log-linear models with age, gender, clinical center, number of lifetime adenomas, and duration of follow-up as covariates. […] Possible modification of treatment effects by baseline characteristics was assessed using interaction terms in the log-linear model. Counts of other clinical endpoints were compared using Fisher's exact test. To compare the effect of aspirin on different types of polyps, a logistic regression model was used with generalized estimating equations (Liang and Zeger Biometrika 1986:13-22) to account for the clustering of multiple endpoints within patients. […] Two-sided P-values <0.05 were considered statistically significant.

[2] = tested on: patients with sporadic (non-hereditary) colorectal neoplasia (adenomas); assay: Randomized, double-blind, placebo-controlled study of aspirin on occurrence of large bowel adenomas; type: in vivo, human
Text: Patients were recruited at nine centers in North America.
By protocol, subjects were to have a complete surveillance colonoscopy 34-40 months after the qualifying examination. At each colonoscopy, the endoscopist recorded the estimated size and location of all polyps and mucosal lesions suspicious for neoplasia as per usual clinical practice. Each lesion was removed and examined histologically at the clinical center and by the study pathologist. Polyps were classified as neoplastic (adenomatous) or non-neoplastic (e.g., hyperplastic) by the study pathologist.
The primary study outcome was the proportion of subjects with one or more colorectal adenomas detected during the period from one year after randomization through the anticipated surveillance follow-up. If a surveillance colonoscopy was not performed during the protocol time window, the last examination at least one year after randomization was taken as the follow-up exam. Pre-specified secondary outcomes were the numbers of large-bowel adenomas and “advanced lesions”: tubulovillous adenomas (25 to 75 percent villous features), villous adenomas (>75 percent villous), large adenomas ([…]), severe dysplasia, or invasive cancer. Separate analyses were also conducted for lesions in the left colorectum (descending colon, sigmoid colon, and rectum) and right colorectum (the remainder of the bowel).

CC(=O)Oc1ccccc1C(=O)O [aspirin, acetylsalicylic acid]
Coronary Revascularization ([1]; 81 mg aspirin (N = 377)): 3 no of subjects
Deaths ([1]; 81 mg aspirin (N = 377)): 3 no of subjects
Died (percent) ([1]; 81 mg aspirin (N = 377)): 0.8%
Hospitalization ([1]; 81 mg aspirin (N = 377)): 61 no of subjects
Myocardial Infarction ([1]; 81 mg aspirin (N = 377)): 2 no of subjects
Non-Colorectal Cancer ([1]; 81 mg aspirin (N = 377)): 14 no of subjects
Stroke ([1]; 81 mg aspirin (N = 377)): 2 no of subjects
Serious Bleeding, Gastrointestinal ([1]; 81 mg aspirin (N = 377)): 2 no of subjects
Serious Bleeding, Genitourinary ([1]; 81 mg aspirin (N = 377)): 6 no of subjects
Coronary Revascularization ([1]; 325 mg aspirin (N = 372)): 5 no of subjects
Deaths ([1]; 325 mg aspirin (N = 372)): 4 no of subjects
Died (percent) ([1]; 325 mg aspirin (N = 372)): 1.1%
Hospitalization ([1]; 325 mg aspirin (N = 372)): 57 no of subjects
Myocardial Infarction ([1]; 325 mg aspirin (N = 372)): 4 no of subjects
Non-Colorectal Cancer ([1]; 325 mg aspirin (N = 372)): 9 no of subjects
Stroke ([1]; 325 mg aspirin (N = 372)): 5 no of subjects
Serious Bleeding, Gastrointestinal ([1]; 325 mg aspirin (N = 372)): 4 no of subjects
Serious Bleeding, Genitourinary ([1]; 325 mg aspirin (N = 372)): 2 no of subjects
Hospitalization, cancer and myocardial infarction, occurrence ([1]; aspirin groups versus placebo, differences compatible with chance): somewhat more frequently
patients diagnosed with a stroke (all non-fatal) ([1]; both aspirin groups together, none on placebo): Seven
Relative Crude Risk (95% CI) ([2]; Any adenoma, both aspirin groups combined versus placebo): 0.88 (0.77-1.02)
incidence of adenomas ([2]; patients randomized to the aspirin groups): significantly lower
